According to ChEMBL document CHEMBL4842385, “Indirubin Derivatives as Dual Inhibitors Targeting Cyclin-Dependent Kinase and Histone Deacetylase for Treating Cancer” (J Med Chem, 2021):
The source made the active and inactive calls. The calls are words filed in the database; no cut-off is given here.

How the values were obtained:
A549 = test: Antitumor activity against human A549 cells xenografted in BALB/c nude mouse assessed as reduction in tumor size at 25 to 50 mg/kg, iv administered for 21 consecutive days; type: functional, organism-based; conditions: dose 25-50 mg/kg, time 21.0 day
Mus musculus = test: In vivo inhibition of CDK2/4/6 in BALB/c nude mouse xenografted with human A549 cells assessed as reduction in Rb phosphorylation at 25 to 50 mg/kg, iv administered for 21 consecutive days by immunohistochemical analysis; type: functional, organism-based; conditions: dose 25-50 mg/kg
[1] = target: T1, Protein deacetylase HDAC6 (Homo sapiens) (UniProt Q9UBN7); test: Inhibition of HDAC6 in human A549 cells assessed as increase in alpha tubulin acetylation measured after 48 hrs by Western blot analysis; type: cell-based; conditions: dose 1-10 µM
T1 sequence (whole entry): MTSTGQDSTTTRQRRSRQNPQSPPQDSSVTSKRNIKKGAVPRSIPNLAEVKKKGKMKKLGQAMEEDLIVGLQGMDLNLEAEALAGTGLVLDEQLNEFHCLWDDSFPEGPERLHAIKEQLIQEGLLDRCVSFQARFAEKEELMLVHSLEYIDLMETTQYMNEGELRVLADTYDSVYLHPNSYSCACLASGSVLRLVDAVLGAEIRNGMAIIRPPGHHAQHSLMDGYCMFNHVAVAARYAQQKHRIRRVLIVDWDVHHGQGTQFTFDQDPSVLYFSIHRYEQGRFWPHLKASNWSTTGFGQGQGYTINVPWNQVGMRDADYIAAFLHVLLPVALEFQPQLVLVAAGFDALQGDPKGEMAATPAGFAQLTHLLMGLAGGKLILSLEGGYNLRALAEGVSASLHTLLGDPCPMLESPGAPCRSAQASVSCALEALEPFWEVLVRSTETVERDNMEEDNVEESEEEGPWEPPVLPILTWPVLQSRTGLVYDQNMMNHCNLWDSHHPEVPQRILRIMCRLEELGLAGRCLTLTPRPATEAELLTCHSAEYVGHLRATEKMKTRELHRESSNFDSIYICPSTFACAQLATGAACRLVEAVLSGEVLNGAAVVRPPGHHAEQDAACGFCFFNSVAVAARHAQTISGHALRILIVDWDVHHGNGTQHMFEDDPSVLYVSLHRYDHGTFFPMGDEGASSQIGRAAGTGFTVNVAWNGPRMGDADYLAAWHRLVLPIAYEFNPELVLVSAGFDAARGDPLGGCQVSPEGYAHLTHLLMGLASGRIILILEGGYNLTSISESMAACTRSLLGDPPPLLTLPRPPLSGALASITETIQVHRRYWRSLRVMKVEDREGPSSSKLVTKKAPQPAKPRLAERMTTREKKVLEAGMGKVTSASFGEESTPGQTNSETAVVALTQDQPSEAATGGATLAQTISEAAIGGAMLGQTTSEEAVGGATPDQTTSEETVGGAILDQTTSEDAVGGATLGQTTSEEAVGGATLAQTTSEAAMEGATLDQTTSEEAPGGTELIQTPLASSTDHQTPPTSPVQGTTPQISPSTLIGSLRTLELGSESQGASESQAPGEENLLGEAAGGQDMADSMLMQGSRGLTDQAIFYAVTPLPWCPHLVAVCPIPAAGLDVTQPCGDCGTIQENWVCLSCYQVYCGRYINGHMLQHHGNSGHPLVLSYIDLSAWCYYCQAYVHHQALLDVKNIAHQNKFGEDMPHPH

MCF7 [2] = test: Induction of apoptosis in human MCF7 cells assessed as increase in sum of early and late apoptotic cells at 2.5 to 10 uM measured after 48 hrs by Annexin-V/FITC-propidium iodide staining based flow cytometry analysis; type: functional, cell-based; conditions: dose 2.5-10 µM
[3] = target: T1, Protein deacetylase HDAC6 (Homo sapiens); test: Inhibition of HDAC6 in human A549 cells assessed as accumulation of acetylation of H4 at 1 to 10 uM measured after 48 hrs by Western blot analysis; type: cell-based; conditions: dose 1-10 µM
MCF7 [4] = test: Antiproliferative activity against human MCF7 cells assessed as cell growth inhibition measured after 48 hrs by CCK8 assay; type: functional, cell-based; conditions: MCF7, 48 h
[5] = target: T1, Protein deacetylase HDAC6 (Homo sapiens); test: Inhibition of HDAC6 in human MCF7 cells assessed as accumulation of acetylation of H3 at 1 to 10 uM measured after 48 hrs by Western blot analysis; type: cell-based; conditions: dose 1-10 µM
[6] = target: T1, Protein deacetylase HDAC6 (Homo sapiens); test: Inhibition of HDAC6 in human K562 cells assessed as increase in alpha tubulin acetylation measured after 48 hrs by Western blot analysis; type: cell-based; conditions: dose 1-10 µM

SMILES: O=C(CCCO/N=C1/C(=C2/C(=O)Nc3ccccc32)Nc2ccccc21)NO
- Activity (A549): Active
- inhibition (Mus musculus): Active
- inhibition [1]: Dose-Dependent Effect
- Activity (MCF7 [2]): Active
- inhibition [3]: inactive
- IC50 (MCF7 [4]): 2900 nM
- inhibition [5]: inactive
- inhibition [6]: Dose-Dependent Effect
